Where two headings read alike, the source gives them in different places.
Assays:
[1] = system: ER; experiment: Assay system I: transcriptional activation of an ER-dependent reporter gene; format: cell-based; settings: in vitro
Procedure: The problem of the invention is achieved by a method of an in vitro screening for a test substance (ligand) involving selecting and detecting by means of at least two assay systems comprising the following steps: • (i) in a first cellular or tissue assay system selecting the ligand having transcriptional activity • which is mediated by activation of ER and which is measured by detecting potency in the cellular or tissue assay system comprising ER and an ER-driven reporter gene, • whereby, in the first assay system, the ligand activates the potency with an EC50(ER) (half-maximally effective ligand concentration) lower than or equal to 10 nmol/l, and • detecting the activation of the transcription; and • (ii) in a second cell-free or enzymatic assay system, selecting the physical-chemical interaction (recruitment) of SRC-1 and fragments thereof, and of the ER • which is measured by detecting the potency of this interaction in the cell-free or enzymatic system • wherein the ligand activates the ER and induces interaction with the co-present SRC-1 and fragments thereof in the second assay system with a EC50(ER+SRC) higher than or equal to 100 nmol/l, and detecting the potency of the physical-chemical interaction of SRC-1 and fragments thereof and of ER.
The assay employed in this Example only used compounds which are characterized by estrogenic activity. The assays for finding the estrogenic compounds have already been developed and published. These assays are standard assays well known to the person skilled in the art.
(§1) Using the assay described in Example 2, we selected the compound 3′ 15β-dihydrocycloprop[14,15]estra-1,3,5(10),8-tetraene-3,17α-diol [iii] for further examination of its neurotropic and systemic estrogenic effects.

[2] = system: ER and SRC-1 protein; experiment: Assay system II: SRC-1 recruitment by the activated ER (fluorescence resonance energy transfer, cell-free); format: biochemical; settings: for Assay system II: First signs of significant interaction between ER and SRC-1 protein (dose in M): 175 ng his-tagged SRC-1 per well, significant = more than 2 times standard deviation from baseline; for Ratio between values measured in assay systems II and I: assay II dose / assay I EC50
Description: Recruitment: Recruitment of SRC-1 relates to the comparison of the degrees of association by protein-protein interaction between co-present ER and SRC-1 in the absence or presence of an ER-agonist. Numerically, recruitment is defined by the molar concentration of ER-agonist which is required for the occurrence of a significant (more than 2 times standard deviation from baseline) protein-protein interaction between co-expressed ER and SRC-1 in a test system. The baseline is defined by the interaction measured in an identical test system to which no […] has been added.
The assay used in the present Example for investigating the recruitment of ER and co-activator SRC-1 is performed according to the publication of Gauchao ZHOH et al. (1998) Nuclear receptors have distinct affinities for co-activators: Characterization by fluorescence resonance energy transfer, Mol Endo, Vol 12, pp 1594–1604 especially on Page 1602. Furthermore, the assaysystem is described in WO/18124 from Cummings et al. Instead of the euriopium cryptate, mentioned in the International Application, europium chelate—100 ng of euriopium labeled anti-GST-antibody per well—is used in the assays. The labeled antibody was delivered from Wallac, now Perkin Elmer Lifesciences. (Eu-W1024 labeled anti-GST-Antibody for Lance Assays, Part Number AD 0065)
The SRC-1 is used at a concentration of 175 ng his-tagged SRC-1 per well. SRC-1 is present in every well of this assay system.

[3] = system: peripheral estrogen-target organs (uterus, thymus, adrenal glands); experiment: Morphometric assessment of estrogen-sensitive organs in ovariectomized female rats; format: in vivo, rat; settings: subcutaneous
Procedure: (§2) Different doses of the compound of interest and the reference 17β-estradiol were administered subcutaneously in ovariectomized female rats for seven consecutive days. The effect of the compounds on the cognitive performance of experimental animals was evaluated by monitoring the acquisition, consolidation and retrieval of active avoidance behavior. Upon sacrifice, morphometric assessment was made of estrogen-sensitive organs (uterus, thymus, adrenal glands). Neurochemical effects were assessed by quantification of the transcription of ER-induced CNS-specific genes in different brain areas, endowed with different amounts of SRC-1.

[4] = molecular target: T1, ERα (Homo sapiens, UniProt P03372); experiment: Relative binding affinity to ERα; settings: relative to 17β-estradiol
T1 sequence (P03372 1-595): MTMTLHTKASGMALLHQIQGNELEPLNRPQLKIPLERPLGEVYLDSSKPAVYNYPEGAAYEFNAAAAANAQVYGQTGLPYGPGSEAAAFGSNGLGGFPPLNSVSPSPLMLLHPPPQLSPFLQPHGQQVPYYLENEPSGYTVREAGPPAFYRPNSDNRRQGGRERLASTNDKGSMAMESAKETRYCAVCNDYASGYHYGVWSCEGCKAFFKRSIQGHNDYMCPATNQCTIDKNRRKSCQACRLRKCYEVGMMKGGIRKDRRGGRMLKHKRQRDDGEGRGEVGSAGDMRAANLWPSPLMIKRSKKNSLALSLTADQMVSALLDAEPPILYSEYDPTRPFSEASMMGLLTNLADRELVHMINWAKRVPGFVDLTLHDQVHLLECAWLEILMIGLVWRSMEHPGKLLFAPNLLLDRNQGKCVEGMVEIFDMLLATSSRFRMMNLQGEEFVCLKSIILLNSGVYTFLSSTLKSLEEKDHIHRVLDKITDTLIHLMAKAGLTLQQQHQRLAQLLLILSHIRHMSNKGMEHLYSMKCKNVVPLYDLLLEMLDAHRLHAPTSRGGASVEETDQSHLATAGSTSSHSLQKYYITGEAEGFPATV
Description: as §1

[5] = system: ovariectomized female rats; experiment: Active avoidance behavior (cognitive performance) in ovariectomized female rats; format: in vivo, rat; settings: subcutaneous, seven days, compared with 17β-estradiol
Procedure: as §2

[6] = system: oxytocin receptors; experiment: Estrogen-dependent expression of oxytocin receptors in ventromedial nucleus of ovariectomized female rats; format: in vivo, rat; settings: subcutaneous, seven days, compared with 17β-estradiol
Procedure: as §2

[7] = system: bcl-2; experiment: Transcription of estrogen-regulated gene bcl-2 in cerebral cortex of ovariectomized female rats; format: in vivo, rat; settings: subcutaneous, seven days, equal dose comparison with 17β-estradiol
Procedure: as §2

[8] = molecular target: ERβ (Homo sapiens, UniProt Q92731); experiment: Relative binding affinity to ERβ; settings: relative to 17β-estradiol
ERβ, sequence (Q92731 whole entry, species assumed): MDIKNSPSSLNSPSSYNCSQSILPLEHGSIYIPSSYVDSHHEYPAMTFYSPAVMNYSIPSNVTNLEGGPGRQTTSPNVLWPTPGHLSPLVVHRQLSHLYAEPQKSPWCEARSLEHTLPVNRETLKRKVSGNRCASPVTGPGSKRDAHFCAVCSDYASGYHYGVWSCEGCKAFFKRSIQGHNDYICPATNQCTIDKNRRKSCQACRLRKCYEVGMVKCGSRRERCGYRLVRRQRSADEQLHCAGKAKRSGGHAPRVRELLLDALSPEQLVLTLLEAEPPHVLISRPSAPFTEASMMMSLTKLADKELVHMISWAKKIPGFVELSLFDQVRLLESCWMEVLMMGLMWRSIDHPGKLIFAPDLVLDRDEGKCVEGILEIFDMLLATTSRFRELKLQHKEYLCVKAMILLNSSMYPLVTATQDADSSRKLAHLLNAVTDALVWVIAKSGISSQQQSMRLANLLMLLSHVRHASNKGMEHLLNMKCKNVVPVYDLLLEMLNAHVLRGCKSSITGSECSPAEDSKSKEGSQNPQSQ
Description: as §1

[9] = read-out: Assay system I: Transcriptional activation of an ER-dependent reporter gene (EC50 in M) (converted)

| Structure (SMILES) | EC50 ([1]; read-out: Assay system I: Transcriptional activation of an ER-dependent reporter gene (EC50 in M)) | Assay system II: First signs of significant interaction between ER and SRC-1 protein (dose in M) [2] | Ratio between values measured in assay systems II and I [2] | EC50 ([1]; listed as 17β-estradiol, read-out: Assay system I: Transcriptional activation of an ER-dependent reporter gene (EC50 in M) (converted)) | EC50 [1, 9] | recruitment of SRC-1 upon ER binding (in words) [2] | capacity to induce estrogen-like effects in peripheral estrogen-target organs (uterus, thymus, adrenal glands) ([3]; seven consecutive days, compared with 17β-estradiol) | estrogen-dependent changes in peripheral estrogen-sensitive organs at behaviorally effective treatment ([3]; seven days) | relative affinity to ERα, of that of 17β-estradiol [4] | behavioral (cognitive) effect, retention of newly acquired active avoidance behavior [5] | induction of estrogen-dependent expression of oxytocin receptors in the ventromedial nucleus (VMN) [6] | stimulation of transcription of antiapoptotic estrogen-regulated gene bcl-2 in the cerebral cortex [7] | relative affinity to ERβ, of that of 17β-estradiol [8] |
| --- | --- | --- | --- | --- | --- | --- | --- | --- | --- | --- | --- | --- | --- |
| C=CCC1CC(O)C2(C)CCC3c4ccc(O)cc4CCC3C12 (stereo not drawn) [[iv], 15β-allyl-estra-1,3,5,(10)-triene-3,17β-diol] | – | 10^−7 M | 25.0 | – | 4 nM | – | – | – | – | – | – | – | – |
| CCCC1CC(O)C2(C)CCC3c4ccc(O)cc4CCC3C12 (stereo not drawn) [[v], 15β-propyl-estra-1,3,5,(10)-triene-3,17β-diol] | – | 10^−7 M | 10.0 | – | 10 nM | – | – | – | – | – | – | – | – |
| CC12CCC3=C(CCc4cc(O)ccc43)C13CC3CC2O (stereo not drawn) [[iii], 3′,15β-dihydrocycloprop[14,15]-estra-1,3,5(10),8-tetraene-3,17α-diol] | – | 10^−7 M | 100.0 | – | 1 nM | – | several times lower than that of the natural estrogen 17β-estradiol | not associated with estrogen-dependent changes in peripheral estrogen-sensitive organs | 25–30 per cent | indistinguishable from that of 17β-estradiol | to a significantly lower degree than 17β-estradiol | to a higher degree than does 17β-estradiol given at an equal dose | 25–30 per cent |
